US20100324150A1, “HYPERBRANCHED POLYGLYCEROL FOR IMPROVING HEART FUNCTION” (THE UNIVERSITY OF BRITISH COLUMBIA, priority 2007, published 2010)

Experiments:
[1] = tested on: H9C2 cells; assay: Lactate production by H9C2 cells; type: cell-based, rat; details: for Lactate concentration / production in H9C2 cells (in words): relative to control
Description: H9C2 (2-1) embryonic rat heart cells (passage 12, obtained from American Type Culture Collection, Manassas, Va.) were cultured in Dulbecco's modified Eagle's medium (DMEM—Gibco-Invitrogen) containing 10% fetal bovine serum (FBS) and 100 U/ml penicillin-streptomycin at 37° C. in a humidified atmosphere containing 5% CO2. The cells were subcultured into 60 mm culture dishes when 80% confluent (before fusion into myotubes occurred) and were differentiated toward a cardiac phenotype by exposure to DMEM containing 1% horse serum and 0.1 μM all-trans retinoic acid (Sigma) for four days (Menard et al 1999. J Biol Chem 274:29063-70; Bronstrom et al 2000. Int J. Biochem Cell Biol 32:993-1006). Retinoic acid was prepared in the dark in DMSO and stored at −20° C. The concentration of DMSO in the culture media was less than 0.2%. Media was changed daily.
To screen for metabolic actions of dHPGs, H9C2 cells were exposed to a range of dHPG concentration (0.001 to 100 μM). Studies were conducted over six hours in serum-free Krebs-Henseleit (KH) solution (118 mM NaCl, 4.7 mM KCl, 1.2 mM KH2PO4, 1.2 mM MgSO4, 2.0 mM CaCl2, 25 mM NaHCO3, 0.4 mM Na2CO3) containing 0.4 mM palmitate (bound to fatty-acid free albumin), 5.5 mM glucose and 20 mU/L insulin. Aliquots of media (60 μl) were taken at 3 and 6 hours. Viability of cells was assessed by visual inspection of cell morphology using a microscope and by assessment of mitochondrial integrity (MTS—Promega). Accumulation of lactate in the bathing solution over 6 hrs was measured using a diagnostic kit (Sigma, St. Louis, Mo.). Lactate accumulation was expressed as μmol/mg protein. Protein content of the cultures was determined using a commercial Bicinchoninic Acid (BCA) protein assay kit from Sigma (St. Louis, Mo.). Pharmacological agents used as controls included Dicholoracetate (DCA), which directly stimulates glucose oxidation by activating pyruvate dehydrogenase and causes a reduction in lactate.
A variety of dHPG polymers were administered to H9C2 cells in culture and the lactate production analyzed (Tables 2, 3; FIGS. 1a, b). […] Concentration range data (0.0001 to 250.0 uM), as well as controls (dichloroacetate-7.5 mM, DCA-BDH), a group exposed to oxfenicine (2 mM, OXF-Fluka), and a group exposed to oligomycin (2.0 μM, Oligo-Sigma).

[2] = tested on: isolated working rat hearts; assay: Isolated working rat hearts, normoxic non-ischemic perfusion
Description: Hearts from halothane (3-4%)-anesthetized male Sprague-Dawley rats were isolated and perfused as working preparations with Krebs-Henseleit (KH) solution at a left atrial preload of 11.5 mmHg and an aortic afterload of 80 mmHg in a closed recirculating system with oxygenated (95% O2-5% CO2) Krebs-Henseleit (KH) solution maintained at 37° C., as described (Burelle et al 2004. Am J Physiol Heart Circ Physiol 287:H1055-63; Allard et al 1994. Am J Physiol 267:H742-H750; Saeedi et al 2006. BMC Cardiovasc Disord 6:8). A first series of hearts was perfused with KH solution containing 0.6 or 1.2 mM [1-^14C]- or [9,10-^3H]-palmitate, prebound to fatty acid-free albumin (3%), together with 5.5 mM glucose, 0.5 mM lactate, and 20 mU/l insulin in order to measure rates of palmitate oxidation. A second series of hearts was perfused with KH solution containing 0.6 or 1.2 mM palmitate, 5.5 mM [5-^3H/U-^14C]-glucose, 0.5 mM lactate, and 20 mU/l insulin in order to measure glycolysis and glucose oxidation. Concentrations of insulin and substrates reflect values seen under physiologic and pathophysiologic conditions. […]
Heart rate and systolic pressure may be measured using a pressure transducer (Viggo-Spectramed, Oxnard, Calif.) inserted in the afterload line of the isolated heart. Cardiac output and aortic flow may be measured via external flow probes (Transonic Systems, Ithaca, N.Y.) on the left atrial preload and aortic afterload lines, respectively. External work performed by the heart is expressed as, “rate-pressure product”, the product of heart rate and peak systolic pressure, and “hydraulic work”, the product of cardiac output and peak systolic pressure. […]
Isolated, working rat hearts were exposed to 10 μM dHPG-85K-G71.4-C181.9-PEG26.7(RKK-108) and studied under normoxic, non-ischemic conditions. During normoxic, non-ischemic perfusion, RKK108 improves heart function (rate-pressure assessment—beats per minute×mmHg/1000) by about 10 to about 15% (FIG. 2), When heart function is assessed by hydraulic work an improvement of about 20% is also observed.

Structure (SMILES) | Lactate Production by H9C2 Cells ([1]; 7.5 mM) | Lactate Production by H9C2 Cells ([1]; 2 μM) | Lactate concentration / production in H9C2 cells (in words) [1] | Lactate Production by H9C2 Cells ([1]; 2 mM) | Glycolysis [2] | Glucose oxidation ([2]; RKK108 10 μM) | Palmitate oxidation ([2]; RKK108 10 μM)
O=C(O)C(Cl)Cl [DCA, dichloroacetate] | 63 ± 5 % Control | – | – | – | – | – | –
CC[C@H]1/C=C/C=C/C[C@@H](C)[C@H](O)[C@@](C)(O)C(=O)[C@@H](C)[C@H](O)[C@@H](C)C(=O)[C@@H](C)[C@H](O)[C@@H](C)/C=C/C(=O)O[C@@H]2[C@H](C)[C@H](CC1)O[C@]1(CC[C@H](C)[C@H](C[C@@H](C)O)O1)[C@H]2C [Oligomycin] | – | 226 ± 10 % Control | increase in lactate concentration, greater than that of OXF-treated samples | – | – | – | –
N[C@H](C(=O)O)c1ccc(O)cc1 [Oxfenicine] | – | – | increase in lactate | 130 ± 7 % Control | accelerates both glucose oxidation and glycolysis | accelerates both glucose oxidation and glycolysis | reduces palmitate oxidation
